From patent publication US11807625B2, “Capsid inhibitors for the prevention of HIV” (Gilead Sciences, Inc., priority 2019, dated 2023)

Test: PK of compound of Formula (Ia) after single subcutaneous dose of solution formulations in Wistar Han rats
Type: in vivo
Conditions: male, Wistar Han, rat, plasma, sc, 50 mg/kg, Wistar Han rats, SC 50 mg/kg
Experimental: Formulations containing the compound of Formula (Ia), or a pharmaceutically acceptable salt thereof, were prepared as solutions and optionally administered subcutaneously or intramuscularly to rats, rabbits, and/or dogs.
(§1) A solution of about 400 mg/mL of the compound of Formula (Ia) having 19.14 w/w % water, 40.66 w/w % PEG 300, 35.20 w/w % of a sodium salt of a compound of Formula (Ia), and 5.00% ethanol was prepared. The solution was administered subcutaneously to male Wistar Han rats at a dose level of about 50 mg/kg and dose volume of 0.125 mL/kg and the pharmacokinetic (PK) profile was determined.
as §1, with “500” for “400”, “16.64” for “19.14”, “35.36” for “40.66”, “43.00” for “35.20”, “0.1” for “0.125”
(§2) A solution of about 400 mg/mL of the compound of Formula (Ia) having 17.00 w/w % water, 36.40 w/w % PEG 300, 35.20 w/w % of a sodium salt of a compound of Formula (Ia), 5.00 w/w % ethanol, and 6.40 w/w % poloxamer 188 was prepared. The solution was administered subcutaneously to male beagle dogs at a dose level of about 12 mg/kg and male Wistar Han rats at a dose level of about 50 mg/kg. The pharmacokinetic profiles were determined, and the results for dogs are summarized in Table and Table, while the results for rats are summarized in Table and Table below.
as §2, with “500” for “400”, “14.06” for “17.00”, “30.12” for “36.40”
A solution of about 300 mg/mL of the compound of Formula (Ia) having 23.33 w/w % water, 48.99 w/w % PEG 300, 26.47 w/w % of a sodium salt of a compound of Formula (Ia), and 1.21 w/w % poloxamer 188 was prepared. The solution was administered subcutaneously to male beagle dogs at a dose level of about 6 mg/kg and male Wistar Han rats at a dose level of about 50 mg/kg. The pharmacokinetic profiles were determined, and the results for dogs are summarized in Table and Table, while the results for rats are summarized in Table and Table below.
as §2, with “18.80” for “17.00”, “40.25” for “36.40”, “34.38” for “35.20”, “1.57” for “6.40”
as §2, with “500” for “400”, “16.29” for “17.00”, “34.88” for “36.40”, “41.92” for “35.20”, “1.91” for “6.40”
A solution of about 400 mg/mL of the compound of Formula (Ia) having 20.90 w/w % water, 44.72 w/w % PEG 300, and 34.38 w/w % of a sodium salt of a compound of Formula (Ia) was prepared. […]

[1] = 400 mg/mL solution AA (6.25% poloxamer 188), Mean n = 4
[2] = 400 mg/mL solution W (5.00% ethanol, 1.57% poloxamer 188), Mean n = 3
[3] = 400 mg/mL solution W (5.00% ethanol, 1.57% poloxamer 188), animals #1-#3
[4] = 400 mg/mL solution Y (water, PEG 300), Mean n = 4
[5] = 400 mg/mL solution Y (water, PEG 300), animals #1-#4
[6] = 400 mg/mL solution Z (3.13% poloxamer 188), Mean n = 4
[7] = 400 mg/mL solution Z (3.13% poloxamer 188), animals #1-#4
[8] = 400 mg/mL solution Z (3.13% poloxamer 188), Mean (#2 NS)
[9] = 400 mg/mL solution Z (3.13% poloxamer 188), animals #1, #3, #4 (#2 NS)
[10] = 500 mg/mL solution X (5.00% ethanol, 1.91% poloxamer 188), Mean n = 3
[11] = 500 mg/mL solution X (5.00% ethanol, 1.91% poloxamer 188), animals #1-#3

concentration at 2016 h [1]: 78.2 nM | concentration at 2352 h [1]: 75.4 nM | concentration at 2688 h [1]: 74.6 nM | concentration at 3024 h [1]: 69.8 nM | concentration at 3360 h [1]: 64.1 nM | concentration at 3696 h [1]: 65.7 nM | concentration at 1 h [2]: 30.6 nM | concentration at 3 h [2]: 53.4 nM | concentration at 8 h [2]: 76.9 nM | concentration at 24 h [2]: 120 nM | concentration at 24 h [3]: 127 nM | concentration at 48 h [2]: 152 nM | concentration at 48 h [3]: 128 nM | concentration at 72 h [2]: 152 nM | concentration at 72 h [3]: 112 nM | concentration at 96 h [2]: 138 nM | concentration at 96 h [3]: 98.6 nM | concentration at 168 h [2]: 118 nM | concentration at 168 h [3]: 80 nM | concentration at 336 h [2]: 171 nM | concentration at 336 h [3]: 123 nM | concentration at 504 h [2]: 248 nM | concentration at 504 h [3]: 194 nM | concentration at 672 h [2]: 261 nM | concentration at 672 h [3]: 217 nM | concentration at 840 h [2]: 290 nM | concentration at 840 h [3]: 273 nM | concentration at 1008 h [2]: 239 nM | concentration at 1008 h [3]: 176 nM | concentration at 1344 h [2]: 305 nM | concentration at 1344 h [3]: 260 nM | concentration at 1680 h [2]: 261 nM | concentration at 1680 h [3]: 206 nM | concentration at 2016 h [2]: 201 nM | concentration at 2016 h [3]: 163 nM | concentration at 2352 h [2]: 162 nM | concentration at 2352 h [3]: 164 nM | concentration at 2688 h [2]: 173 nM | concentration at 2688 h [3]: 170 nM | concentration at 3024 h [2]: 131 nM | concentration at 3024 h [3]: 145 nM | concentration at 3360 h [2]: 129 nM | concentration at 3360 h [3]: 151 nM | concentration at 3696 h [2]: 107 nM | concentration at 3696 h [3]: 133 nM | concentration at 4032 h (400 mg/mL solution W (5.00% ethanol, 1.57% poloxamer 188), 4032 h, Mean n = 3): 97.5 nM | concentration at 4704 h (400 mg/mL solution W (5.00% ethanol, 1.57% poloxamer 188), 4704 h, Mean n = 3): 57.9 nM | concentration at 1 h [4]: 28.6 nM | concentration at 1 h [5]: 28.7 nM | concentration at 3 h [4]: 52.2 nM | concentration at 3 h [5]: 51.3 nM | concentration at 8 h [4]: 65.8 nM | concentration at 8 h [5]: 62.1 nM | concentration at 24 h [4]: 93.2 nM | concentration at 24 h [5]: 72.1 nM | concentration at 48 h [4]: 110 nM | concentration at 48 h [5]: 83 nM | concentration at 72 h [4]: 109 nM | concentration at 72 h [5]: 87.1 nM | concentration at 96 h [4]: 95.3 nM | concentration at 168 h [4]: 85.7 nM | concentration at 336 h [4]: 103 nM | concentration at 504 h [4]: 131 nM | concentration at 672 h [4]: 151 nM | concentration at 840 h [4]: 158 nM | concentration at 1008 h [4]: 162 nM | concentration at 1344 h [4]: 159 nM | concentration at 1680 h [4]: 132 nM | concentration at 2016 h [4]: 117 nM | concentration at 2352 h [4]: 118 nM | concentration at 2688 h [4]: 119 nM | concentration at 3024 h [4]: 105 nM | concentration at 3360 h [4]: 95.2 nM | concentration at 3696 h [4]: 90.4 nM | concentration at 1 h [6]: 41.7 nM | concentration at 3 h [6]: 70.3 nM | concentration at 8 h [6]: 85.9 nM | concentration at 24 h [6]: 144 nM | concentration at 48 h [6]: 165 nM | concentration at 72 h [6]: 163 nM | concentration at 96 h [6]: 147 nM | concentration at 168 h [6]: 135 nM | concentration at 336 h [6]: 169 nM | concentration at 504 h [6]: 166 nM | concentration at 672 h [6]: 172 nM | concentration at 672 h [7]: 163 nM | concentration at 840 h [6]: 174 nM | concentration at 1008 h [6]: 164 nM | concentration at 1008 h [7]: 137 nM | concentration at 1344 h [6]: 138 nM | concentration at 1344 h [7]: 113 nM | concentration at 1680 h [6]: 127 nM | concentration at 1680 h [7]: 108 nM | concentration at 2016 h [6]: 127 nM | concentration at 2016 h [7]: 111 nM | concentration at 2352 h [6]: 127 nM | concentration at 2352 h [7]: 101 nM | concentration at 2688 h [6]: 141 nM | concentration at 2688 h [7]: 118 nM | concentration at 3024 h [6]: 133 nM | concentration at 3024 h [7]: 110 nM | concentration at 3360 h [8]: 133 nM | concentration at 3360 h [9]: 109 nM | concentration at 3696 h [8]: 135 nM | concentration at 3696 h [9]: 91.2 nM | concentration at 1 h [10]: 46.8 nM | concentration at 3 h [10]: 77.6 nM | concentration at 3 h [11]: 89 nM | concentration at 8 h [10]: 96.2 nM | concentration at 8 h [11]: 115 nM | concentration at 24 h [10]: 184 nM | concentration at 24 h [11]: 164 nM | concentration at 48 h [10]: 209 nM | concentration at 48 h [11]: 209 nM | concentration at 72 h [10]: 199 nM | concentration at 72 h [11]: 207 nM | concentration at 96 h [10]: 187 nM | concentration at 96 h [11]: 193 nM | concentration at 168 h [10]: 176 nM | concentration at 168 h [11]: 204 nM | concentration at 336 h [10]: 233 nM | concentration at 336 h [11]: 269 nM | concentration at 504 h [10]: 270 nM | concentration at 504 h [11]: 311 nM | concentration at 672 h [10]: 270 nM | concentration at 672 h [11]: 312 nM | concentration at 840 h [10]: 294 nM | concentration at 840 h [11]: 361 nM | concentration at 1008 h [10]: 235 nM | concentration at 1008 h [11]: 209 nM | concentration at 1344 h [10]: 272 nM | concentration at 1344 h [11]: 314 nM | concentration at 1680 h [10]: 247 nM | concentration at 1680 h [11]: 206 nM | concentration at 2016 h [10]: 193 nM | concentration at 2016 h [11]: 161 nM | concentration at 2352 h [10]: 158 nM | concentration at 2352 h [11]: 111 nM
Structure (SMILES): CC(C)(C#Cc1ccc(-c2ccc(Cl)c3c(NS(C)(=O)=O)nn(CC(F)(F)F)c23)c([C@H](Cc2cc(F)cc(F)c2)NC(=O)Cn2nc(C(F)(F)F)c3c2C(F)(F)[C@@H]2C[C@H]32)n1)S(C)(=O)=O [compound of Formula (Ia)]
